US9216173B2, “2-Pyridyl carboxamide-containing spleen tyrosine kinase (SYK) inhibitors” (Merck Sharp & Dohme Corp., priority 2011, dated 2015)

molecular target: T1, recombinant human GST-SYK (Homo sapiens, UniProt P43405); experiment: Homogeneous Time-Resolved Fluorescence (HTRF) assay for the recombinant human Syk enzyme; type: biochemical; details: GST-hSYK 5 pM, ATP 25 μM, 10-dose titration 10 μM to 0.508 nM; read-out: IC50
T1 construct: purchased Carna Biosciences 08-176
Description: Homogeneous Time-Resolved Fluorescence (HTRF) Assay for the Recombinant Human Syk Enzyme
A recombinant GST-hSYK fusion protein was used to measure potency of compounds to inhibit human Syk activity. […] Final volume of the reaction was 10 μL. Phosphorylation of the peptide was allowed to proceed for 45 minutes at room temperature. To quench the reaction and detect the phosphorylated product, 2 nM of a Europium-anti-phosphotyrosine antibody (Perkin Elmer #AD0161) and 70 nM SA-APC (Perkin-Elmer #CR130-100) were added together in 15 mM Tris pH 7.5, 40 mM EDTA, 0.01% tween 20. Final volume of the quenching solution was 10 μL. The resulting HTRF signal was measured after 30 minutes on an EnVision (Perkin-Elmer) reader using a time-resolved fluorescence protocol.

IC50 [nM]	SMILES
12	Cc1cc(C)nc(Nc2cc(NC(C(N)=O)C(C)C)cnc2C(N)=O)c1 (stereo not shown) [Example 1.41, 5-[(1-carbamoyl-2-methylpropyl)amino]-3-[(4,6-dimethylpyridin-2-yl)amino]pyridine-2-carboxamide]
55	Cc1cc(C)nc(Nc2cc(N[C@H]3CC[C@@H]3N)cnc2C(N)=O)c1 (relative stereo) [Example 1.116, rel-5-{[(1S,2S)-2-aminocyclobutyl]amino}-3-[(4,6-dimethylpyridin-2-yl)amino]pyridine-2-carboxamide]

same assay, conditions: GST-hSYK 5 pM, ATP 25 μM, 10-dose titration 10 μM to 0.508 nM; read-out: rhSYK Activity (IC50 rating)

IC50 [nM]	SMILES
10 to 100	Cc1cc(C)nc(Nc2cc(NC(C(N)=O)C(C)C)cnc2C(N)=O)c1 (stereo not shown) [Example 1.41, 5-[(1-carbamoyl-2-methylpropyl)amino]-3-[(4,6-dimethylpyridin-2-yl)amino]pyridine-2-carboxamide]
10 to 100	C[C@H](N)CNc1cnc(C(N)=O)c(Nc2ccn(C)n2)c1 [Example 1.92, 5-{[(2S)-2-aminopropyl]amino}-3-[(1-methyl-1H-pyrazol-3-yl)amino]pyridine-2-carboxamide]
< 10	Cc1nc(Nc2cc(N[C@@H]3CCCC[C@@H]3N)cnc2C(N)=O)ccc1-c1cccc(-n2nccn2)c1 [Example 3.20, 5-{[(1R,2S)-2-aminocyclohexyl]amino}-3-({6-methyl-5-[3-(2H-1,2,3-triazol-2-yl)phenyl]pyridin-2-yl}amino)pyridine-2-carboxamide]
< 10	Cc1cc(C)nc(Nc2cc(N[C@H]3[C@@H](N)CCCC3(F)F)cnc2C(N)=O)c1 [Example 1.47, 5-{[(1S,6S)-6-amino-2,2-difluorocyclohexyl]amino}-3-[(4,6-dimethylpyridin-2-yl)amino]pyridine-2-carboxamide]
< 10	COC[C@H](N)CNc1cnc(C(N)=O)c(Nc2cccc(C(F)(F)F)n2)c1 [Example 1.105, 5-{[(2R)-2-amino-3-methoxypropyl]amino}-3-{[6-(trifluoromethyl)pyridin-2-yl]amino}pyridine-2-carboxamide]
10 to 100	Cc1cc(C)nc(Nc2cc(NC(C)C(N)=O)cnc2C(N)=O)c1 (stereo not shown) [Example 1.39, 5-[(2-amino-1-methyl-2-oxoethyl)amino]-3-[(4,6-dimethylpyridin-2-yl)amino]pyridine-2-carboxamide]
100 to 1000	Cc1cc(C)nc(Nc2cc(NC3CCNCC3)cnc2C(N)=O)c1 [Example 2.10, 3-[(4,6-dimethylpyridin-2-yl)amino]-5-(piperidin-4-ylamino)pyridine-2-carboxamide]
< 10	Cc1nc(Nc2cc(N[C@@H]3CCCC[C@@H]3N)cnc2C(N)=O)ccc1-c1cccc(N(C)S(C)(=O)=O)c1 [Example 3.19, 5-{[(1R,2S)-2-aminocyclohexyl]amino}-3-[(6-methyl-5-{3-[methyl(methylsulfonyl)amino]phenyl}pyridin-2-yl)amino]pyridine-2-carboxamide]
< 10	Cc1cncc(Nc2cc(N[C@@H]3CCCC[C@@H]3N)cnc2C(N)=O)n1 [Example 1.121, 5-{[(1R,2S)-2-aminocyclohexyl]amino}-3-[(6-methylpyrazin-2-yl)amino]pyridine-2-carboxamide]
< 10	NC(=O)c1ncc(N[C@@H]2CCCC[C@@H]2N)cc1Nc1ccn(-c2ccccc2)n1 [Example 1.14, 5-{[(1R,2S)-2-aminocyclohexyl]amino}-3-[(1-phenyl-1H-pyrazol-3-yl)amino]pyridine-2-carboxamide]
10 to 100	Cc1cc(C)nc(Nc2cc(NCC(N)C(F)F)cnc2C(N)=O)c1 (stereo not shown) [Example 2.4, 5-[(2-amino-3,3-difluoropropyl)amino]-3-[(4,6-dimethylpyridin-2-yl)amino]pyridine-2-carboxamide]
< 10	NC(=O)c1ncc(N[C@@H]2CCCC[C@@H]2N)cc1Nc1cccc(-c2ccccc2)n1 [Example 1.28, 5-{[(1R,2S)-2-aminocyclohexyl]amino}-3-[(6-phenylpyridin-2-yl)amino]pyridine-2-carboxamide]
< 10	Cc1nc(Nc2cc(N[C@@H]3CCCC[C@@H]3N)cnc2C(N)=O)ccc1-c1ccc(N2CCN(C)CC2)cc1 [Example 3.13, 5-{[(1R,2S)-2-aminocyclohexyl]amino}-3-({6-methyl-5-[4-(4-methylpiperazin-1-yl)phenyl]pyridin-2-yl}amino)pyridine-2-carboxamide]
< 10	Cc1cc(OC(C)C)cc(Nc2cc(N[C@@H]3CCCC[C@@H]3N)cnc2C(N)=O)n1 [Example 5.2, 5-{[(1R,2S)-2-aminocyclohexyl]amino}-3-{[6-methyl-4-(1-methylethoxy)pyridin-2-yl]amino}pyridine-2-carboxamide]
10 to 100	NC(=O)c1ncc(N[C@@H]2CCCC[C@@H]2N)cc1Nc1ncn(-c2ccccc2)n1 [Example 1.44, 5-{[(1R,2S)-2-aminocyclohexyl]amino}-3-[(1-phenyl-1H-1,2,4-triazol-3-yl)amino]pyridine-2-carboxamide]
< 10	Cc1cccc(-n2ccc(Nc3cc(N[C@@H]4CCCC[C@@H]4N)cnc3C(N)=O)n2)c1 [Example 1.80, 5-{[(1R,2S)-2-aminocyclohexyl]amino}-3-{[1-(3-methylphenyl)-1H-pyrazol-3-yl]amino}pyridine-2-carboxamide]

IC50 [nM]	SMILES
< 10	COc1ccc(-c2ccc(Nc3cc(N[C@@H]4CCCC[C@@H]4N)cnc3C(N)=O)nc2C)cn1 [Example 3.22, 5-{[(1R,2S)-2-aminocyclohexyl]amino}-3-[(6′-methoxy-2-methyl-3,3′-bipyridin-6-yl)amino]pyridine-2-carboxamide]
10 to 100	Cc1cccc(-c2ccc(Nc3cc(N[C@@H]4CCCC[C@@H]4N)cnc3C(N)=O)nc2C)c1O [Example 3.28, 5-{[(1R,2S)-2-aminocyclohexyl]amino}-3-{[5-(2-hydroxy-3-methylphenyl)-6-methylpyridin-2-yl]amino}pyridine-2-carboxamide]
< 10	Cc1nc(Nc2cc(N[C@@H]3CCCC[C@@H]3N)cnc2C(N)=O)ccc1-c1cccc([N+](=O)[O-])c1 [Example 3.3, 5-{[(1R,2S)-2-aminocyclohexyl]amino}-3-{[6-methyl-5-(3-nitrophenyl)pyridin-2-yl]amino}pyridine-2-carboxamide]
< 10	CCc1cccc(Nc2cc(NC[C@H](C)N)cnc2C(N)=O)n1 [Example 1.94, 5-{[(2S)-2-aminopropyl]amino}-3-[(6-ethylpyridin-2-yl)amino]pyridine-2-carboxamide]
10 to 100	Cc1cc(C)nc(Nc2cc(NC(CN)c3ccccc3)cnc2C(N)=O)c1 (stereo not shown) [Example 1.23, 5-[(2-amino-1-phenylethyl)amino]-3-[(4,6-dimethylpyridin-2-yl)amino]pyridine-2-carboxamide]
10 to 100	Cc1cc(C)nc(Nc2cc(N[C@H]3CC[C@@H]3N)cnc2C(N)=O)c1 (relative stereo) [Example 1.116, rel-5-{[(1S,2S)-2-aminocyclobutyl]amino}-3-[(4,6-dimethylpyridin-2-yl)amino]pyridine-2-carboxamide]
< 10	Cc1nc(Nc2cc(N[C@@H]3CCCC[C@@H]3N)cnc2C(N)=O)ccc1-c1ccc2c(c1)CNC2=O [Example 3.17, 5-{[(1R,2S)-2-aminocyclohexyl]amino}-3-{[6-methyl-5-(1-oxo-2,3-dihydro-1H-isoindol-5-yl)pyridin-2-yl]amino}pyridine-2-carboxamide]
< 10	NC(=O)c1ncc(N[C@@H]2CCCC[C@@H]2N)cc1Nc1cccc(C2CC2)n1 [Example 1.53, 5-{[(1R,2S)-2-aminocyclohexyl]amino}-3-[(6-cyclopropylpyridin-2-yl)amino]pyridine-2-carboxamide]
10 to 100	Cc1cc(C)nc(Nc2cc(NCC(N)CO)cnc2C(N)=O)c1 (stereo not shown) [Example 2.14, 5-[(2-amino-3-hydroxypropyl)amino]-3-[(4,6-dimethylpyridin-2-yl)amino]pyridine-2-carboxamide]
10 to 100	Cn1ncc(Nc2cc(N[C@@H]3CCCC[C@@H]3N)cnc2C(N)=O)n1 [Example 1.62, 5-{[(1R,2S)-2-aminocyclohexyl]amino}-3-[(2-methyl-2H-1,2,3-triazol-4-yl)amino]pyridine-2-carboxamide]
10 to 100	Cc1nc(Nc2cc(N[C@@H]3CCCC[C@@H]3N)cnc2C(N)=O)ccc1C(=O)N(C)C [Example 17, 5-{[(1R,2S)-2-aminocyclohexyl]amino}-3-{[5-(dimethylcarbamoyl)-6-methylpyridin-2-yl]amino}pyridine-2-carboxamide]
< 10	Cc1nc(Nc2cc(N[C@@H]3CCCC[C@@H]3N)cnc2C(N)=O)ccc1-c1ccc2c(cnn2C)c1 [Example 3.18, 5-{[(1R,2S)-2-aminocyclohexyl]amino}-3-{[6-methyl-5-(1-methyl-1H-indazol-5-yl)pyridin-2-yl]amino}pyridine-2-carboxamide]
< 10	Cc1cc(-c2ccnn2C)cc(Nc2cc(N[C@@H]3CCCC[C@@H]3N)cnc2C(N)=O)n1 [Example 4.4, 5-{[(1R,2S)-2-aminocyclohexyl]amino}-3-{[6-methyl-4-(1-methyl-1H-pyrazol-5-yl)pyridin-2-yl]amino}pyridine-2-carboxamide]
10 to 100	NC(=O)c1ncc(N[C@@H]2CCCC[C@@H]2N)cc1Nc1nc(Cl)ncc1F [Example 1.128, 5-{[(1R,2S)-2-aminocyclohexyl]amino}-3-[(2-chloro-5-fluoropyrimidin-4-yl)amino]pyridine-2-carboxamide]
< 10	Cc1nc(Nc2cc(N[C@@H]3CCCC[C@@H]3N)cnc2C(N)=O)ccc1-c1cccc(C(O)C(F)(F)F)c1 (stereo partly drawn) [Example 3.11, 5-{[(1R,2S)-2-aminocyclohexyl]amino}-3-({6-methyl-5-[3-(2,2,2-trifluoro-1-hydroxyethyl)phenyl]pyridin-2-yl}amino)pyridine-2-carboxamide]
< 10	COc1cc(C)nc(Nc2cc(N[C@@H]3CCOC[C@@H]3N)cnc2C(N)=O)c1 [Example 1.131, 5-{[(3R,4R)-3-aminotetrahydro-2H-pyran-4-yl]amino}-3-[(4-methoxy-6-methylpyridin-2-yl)amino]pyridine-2-carboxamide]
